Data reported in patent publication US12486302B2, “Somatostatin receptor antagonist compounds and methods of using the same” (CDRD VENTURES INC., priority 2016, dated 2025).
*1 amine or outer side, *2 acyl side, *3 side chain or, on linkers, in order; H or OH if unused. Where a SMILES comes first, the peptide text is derived from it. Bridges are numbered along the chain shown (N, C = ends). Side-chain parts run from the residue outwards. [ ]: non-standard residue; d: D form. The star is where a group is joined. ξ: configuration not given here. dPhe(4-CONH2) = NC(=O)c1ccc(C[C@@H](N)C(=O)O)cc1; dPhe(4-NH2) = Nc1ccc(C[C@@H](N)C(=O)O)cc1; Phe(4-Cl) = N[C@@H](Cc1ccc(Cl)cc1)C(=O)O; Lys(Me2) = CN(C)CCCC[C@H](N)C(=O)O; NH(4-MeO-phenyl) = COc1ccc(N*)cc1; dCit = NC(=O)NCCC[C@@H](N)C(=O)O; Lys(Me) = CNCCCC[C@H](N)C(=O)O; Tle = CC(C)(C)[C@H](N)C(=O)O; Nicotinoyl = O=C(c1cccnc1)*; ξY = NC(Cc1ccc(O)cc1)C(=O)O; ξF = NC(Cc1ccccc1)C(=O)O; CO = O=C([*:1])[*:2]; Bz = O=C(c1ccccc1)*; NHPh = c1ccc(N*)cc1

Molecular target: somatostatin type 2 (SSTR2) receptors (Homo sapiens, UniProt P30874)
Sequence (P30874 whole entry): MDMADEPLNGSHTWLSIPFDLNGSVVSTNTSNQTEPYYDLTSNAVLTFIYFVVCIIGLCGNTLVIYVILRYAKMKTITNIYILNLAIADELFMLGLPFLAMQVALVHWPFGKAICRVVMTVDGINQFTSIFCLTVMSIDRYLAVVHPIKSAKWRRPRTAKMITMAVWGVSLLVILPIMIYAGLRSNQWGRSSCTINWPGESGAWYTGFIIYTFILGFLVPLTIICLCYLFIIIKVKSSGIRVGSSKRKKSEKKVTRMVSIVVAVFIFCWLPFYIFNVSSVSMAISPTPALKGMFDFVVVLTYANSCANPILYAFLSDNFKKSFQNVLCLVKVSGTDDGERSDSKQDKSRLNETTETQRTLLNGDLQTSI
Assay: PathHunter β-Arrestin assay, antagonist mode, SSTR2
Assay type: cell-based
Conditions: agonist challenge at EC80
Method: The PathHunter® β-Arrestin assay monitors the activation of a GPCR in a homogenous, non-imaging assay format using a technology developed by DiscoveRx called Enzyme Fragment Complementation (EFC) with β-galactosidase (β-Gal) as the functional reporter. […] EA is fused to β-Arrestin and […] is fused to the GPCR of interest. When the GPCR is activated and β-Arrestin is recruited to the receptor, ED and EA complementation occurs, restoring β-Gal activity which is measured using chemiluminescent PathHunter® Detection Reagents. For antagonist determination, cells were pre-incubated with the compounds followed by agonist challenge at the EC80 concentration. Data was normalized to the maximal and minimal response observed in the presence of EC80 ligand and vehicle. Compound activity was analyzed using CBIS data analysis suite ChemInnovation, CA). Percentage inhibition was calculated using the following formula: % Inhibition=100%×(1−(mean signal of test sample-mean signal of vehicle control)/(mean signal of EC80 control-mean signal of vehicle control)). Percentage inhibition was calculated at 10 concentrations in steps on a Log 3 scale ranging from […] to 5e-5 μM. The results were plotted for IC50 calculation.

| Compound | IC50 |
| --- | --- |
| CNCCCC[C@@H]1NC(=O)[C@@H](Cc2ccc(NC(=O)Nc3ccccc3)cc2)NC(=O)[C@H](Cc2ccc(O)cc2)NC(=O)[C@H](NC(=O)[C@@H](N)Cc2ccc(Cl)cc2)CSSC[C@@H](C(=O)NC(Cc2ccc(O)cc2)C(N)=O)NC(=O)[C@H]([C@@H](C)O)NC1=O (stereo partly drawn) [Compound 25, H-Cpa-cyclo[D-Cys-Tyr-D-Phe(4-phenylureido)-Lys(N^ε-Me)-Thr-Cys]-D-Tyr-NH2] (H-[Phe(4-Cl)][dC]Y[dPhe(4-NH2)]([CO-NHPh])[Lys(Me)]TC[ξY]-NH2; disulfide 2-7) | 0.00232 µM |
| CC(=O)NCCCC[C@@H]1NC(=O)[C@@H](Cc2ccc(C(N)=O)cc2)NC(=O)[C@H](Cc2ccc(O)cc2)NC(=O)[C@H](NC(=O)[C@@H](N)Cc2ccc(Cl)cc2)CSSC[C@@H](C(=O)NC(Cc2ccc(O)cc2)C(N)=O)NC(=O)[C@H]([C@@H](C)O)NC1=O (stereo partly drawn) [Compound 26, H-Cpa-cyclo[DCys- Tyr-D-(4- carbamoyl)Phe-(N- Acetyl)Lys-Thr-Cys]- DTyr-NH2] (H-[Phe(4-Cl)][dC]Y[dPhe(4-CONH2)]K(Ac)TC[ξY]-NH2; disulfide 2-7) | > 1 µM |
| C[C@@H](O)[C@@H]1NC(=O)[C@H](CCCCN)NC(=O)[C@@H](Cc2ccc(NC(=O)c3ccccc3)cc2)NC(=O)[C@H](Cc2ccc(O)cc2)NC(=O)[C@H](NC(=O)[C@@H](N)Cc2ccc(Cl)cc2)CSSC[C@@H](C(=O)NC(Cc2ccc(O)cc2)C(N)=O)NC1=O (stereo partly drawn) [Compound 27, H-Cpa-cyclo[DCys- Tyr-D-(4- Benzamidophenyl) Phe-Lys-Thr- Cys]-DTyr-NH2] (H-[Phe(4-Cl)][dC]Y[dPhe(4-NH2)](Bz)KTC[ξY]-NH2; disulfide 2-7) | 0.0347 µM |
| COc1ccc(NC(=O)Nc2ccc(C[C@H]3NC(=O)[C@H](Cc4ccc(O)cc4)NC(=O)[C@H](NC(=O)[C@@H](N)Cc4ccc(Cl)cc4)CSSC[C@@H](C(=O)N[C@H](Cc4ccc(O)cc4)C(N)=O)NC(=O)[C@H]([C@@H](C)O)NC(=O)[C@H](CCCCN)NC3=O)cc2)cc1 [Compound 28, H-Cpa-cyclo[DCys- Tyr-D-(4-(4- methoxyphenyl) ureido) Phe-Lys-Thr-Cys]- DTyr-NH2] (H-[Phe(4-Cl)][dC]Y[dPhe(4-NH2)]([CO-NH(4-MeO-phenyl)])KTC[dY]-NH2; disulfide 2-7) | 0.104 µM |
| C[C@@H](O)[C@@H]1NC(=O)[C@H](CCCNC(=N)N)NC(=O)[C@@H](Cc2ccc(C(N)=O)cc2)NC(=O)[C@H](Cc2ccc(O)cc2)NC(=O)[C@H](NC(=O)[C@@H](N)Cc2ccc(Cl)cc2)CSSC[C@@H](C(=O)NC(Cc2ccc(O)cc2)C(N)=O)NC1=O (stereo partly drawn) [Compound 29, H-Cpa-cyclo[DCys- Tyr-D-(4- carbamoyl)Phe-Arg- Thr-Cys]-DTyr-NH2] (H-[Phe(4-Cl)][dC]Y[dPhe(4-CONH2)]RTC[ξY]-NH2; disulfide 2-7) | 0.398 µM |
| CNCCCC[C@@H]1NC(=O)[C@@H](CCCCNC(=O)c2cccnc2)NC(=O)[C@H](Cc2ccc(O)cc2)NC(=O)[C@H](NC(=O)[C@@H](N)Cc2ccc(Cl)cc2)CSSC[C@@H](C(=O)NC(Cc2ccc(O)cc2)C(N)=O)NC(=O)[C@H]([C@@H](C)O)NC1=O (stereo partly drawn) [Compound 30, H-Cpa-cyclo[D-Cys-Tyr-D-Lys(N^ε-nicotinoyl)-Lys(N^ε-Me)-Thr-Cys]-D-Tyr-NH2] (H-[Phe(4-Cl)][dC]Y[dK](Nicotinoyl)[Lys(Me)]TC[ξY]-NH2; disulfide 2-7) | 0.177 µM |
| CNCCCC[C@@H]1NC(=O)[C@@H](CCCNC(N)=O)NC(=O)[C@H](Cc2ccc(O)cc2)NC(=O)[C@H](NC(=O)[C@@H](N)Cc2ccc(Cl)cc2)CSSC[C@@H](C(=O)N[C@H](Cc2ccc(O)cc2)C(N)=O)NC(=O)[C@H]([C@@H](C)O)NC1=O [Compound 31, H-Cpa-cyclo[DCys- Tyr-D-Cit- (N—Me)Lys-Thr- Cys]-DTyr-NH2] (H-[Phe(4-Cl)][dC]Y[dCit][Lys(Me)]TC[dY]-NH2; disulfide 2-7) | 0.0704 µM |
| C[C@@H](O)[C@@H]1NC(=O)[C@H](CCCCN(C)C)NC(=O)[C@@H](Cc2ccc(C(N)=O)cc2)NC(=O)[C@H](Cc2ccc(O)cc2)NC(=O)[C@H](NC(=O)[C@@H](N)Cc2ccc(Cl)cc2)CSSC[C@@H](C(=O)NC(Cc2ccc(O)cc2)C(N)=O)NC1=O (stereo partly drawn) [Compound 32, H-Cpa-cyclo[D-Cys-Tyr-D-Phe(4-carbamoyl)-Lys(N^ε-diMe)-Thr-Cys]-D-Tyr-NH2] (H-[Phe(4-Cl)][dC]Y[dPhe(4-CONH2)][Lys(Me2)]TC[ξY]-NH2; disulfide 2-7) | 0.00246 µM |
| CC(C)[C@@H]1NC(=O)[C@H](CCCCN)NC(=O)[C@@H](Cc2ccc(C(N)=O)cc2)NC(=O)[C@H](Cc2ccc(O)cc2)NC(=O)[C@H](NC(=O)[C@@H](N)Cc2ccc(Cl)cc2)CSSC[C@@H](C(=O)NC(Cc2ccc(O)cc2)C(N)=O)NC1=O (stereo partly drawn) [Compound 33, H-Cpa-cyclo[DCys- Tyr-D-4- (carbamoyl)Phe-Lys- Val-Cys]-DTyr-NH2] (H-[Phe(4-Cl)][dC]Y[dPhe(4-CONH2)]KVC[ξY]-NH2; disulfide 2-7) | 0.056 µM |
| CC(C)(C)[C@@H]1NC(=O)[C@H](CCCCN)NC(=O)[C@@H](Cc2ccc(C(N)=O)cc2)NC(=O)[C@H](Cc2ccc(O)cc2)NC(=O)[C@H](NC(=O)[C@@H](N)Cc2ccc(Cl)cc2)CSSC[C@@H](C(=O)NC(Cc2ccc(O)cc2)C(N)=O)NC1=O (stereo partly drawn) [Compound 34, H-Cpa-cyclo[DCys- Tyr-D-4- (carbamoyl)Phe-Lys- tBu-Gly-Cys]-DTyr- NH2] (H-[Phe(4-Cl)][dC]Y[dPhe(4-CONH2)]K[Tle]C[ξY]-NH2; disulfide 2-7) | 0.0434 µM |
| C[C@@H](O)[C@@H]1NC(=O)[C@H](CCCCN)NC(=O)[C@@H](Cc2ccc(C(N)=O)cc2)NC(=O)[C@H](Cc2ccccc2)NC(=O)[C@H](NC(=O)[C@@H](N)Cc2ccc(Cl)cc2)CSSC[C@@H](C(=O)NC(Cc2ccc(O)cc2)C(N)=O)NC1=O (stereo partly drawn) [Compound 35, H-Cpa-cyclo[DCys- Phe-D-(4- carbamoyl)Phe-Lys- Thr-Cys]-DTyr-NH2] (H-[Phe(4-Cl)][dC]F[dPhe(4-CONH2)]KTC[ξY]-NH2; disulfide 2-7) | 0.0359 µM |

Continued, values first:

| IC50 | Compound |
| --- | --- |
| > 1 µM | C[C@@H](O)[C@@H]1NC(=O)[C@H](CCCCN)NC(=O)[C@@H](Cc2ccc(C(N)=O)cc2)NC(=O)[C@H](Cc2ccc(O)cc2)NC(=O)[C@@H](NC(=O)[C@@H](N)Cc2ccc(Cl)cc2)CSSC[C@@H](C(=O)NC(Cc2ccc(O)cc2)C(N)=O)NC1=O (stereo in doubt) [Compound 39, H-Cpa-cyclo[Cys- Tyr-D-(4- carbamoyl)Phe- Lys-Thr-Cys]- DTyr-NH2] |
| > 1 µM | CC(O)[C@@H]1NC(=O)[C@H](CCCCN)NC(=O)[C@@H](Cc2ccc(C(N)=O)cc2)NC(=O)[C@H](Cc2ccc(O)cc2)NC(=O)[C@H](NC(=O)[C@@H](N)Cc2ccc(Cl)cc2)CNC(=O)SC[C@@H](C(=O)N[C@H](Cc2ccc(O)cc2)C(N)=O)NC1=O (stereo in doubt) [Compound 61, H-Cpa-cyclo[Dap- Tyr-DPhe (4-CONH2)- Lys-Thr-Cys]- DTyr-NH2] |
| > 1 µM | C[C@@H](O)[C@@H]1NC(=O)[C@H](CCCCN)NC(=O)[C@@H](Cc2ccc(C(N)=O)cc2)NC(=O)[C@H](Cc2ccc(O)cc2)NC(=O)[C@@H](NC(=O)[C@@H](N)Cc2ccc(Cl)cc2)CC=CC[C@@H](C(=O)N[C@H](Cc2ccc(O)cc2)C(N)=O)NC1=O (stereo in doubt) [Compound 68] |
| 0.0287 µM | C[C@@H](O)[C@@H]1NC(=O)[C@H](CCCCN)NC(=O)[C@@H](Cc2ccc(C(N)=O)cc2)NC(=O)[C@H](Cc2ccc(Cl)cc2)NC(=O)[C@H](NC(=O)[C@@H](N)Cc2ccc(Cl)cc2)CSSC[C@@H](C(=O)NC(Cc2ccc(O)cc2)C(N)=O)NC1=O (stereo partly drawn) [Compound 36, H-Cpa-cyclo[DCys- Cpa-D-(4- carbamoyl)Phe-Lys- Thr-Cys]-DTyr-NH2] (H-[Phe(4-Cl)][dC][Phe(4-Cl)][dPhe(4-CONH2)]KTC[ξY]-NH2; disulfide 2-7) |
| 0.0106 µM | NCCCC[C@@H]1NC(=O)[C@@H](Cc2ccc(C(N)=O)cc2)NC(=O)[C@H](Cc2ccc(O)cc2)NC(=O)[C@H](NC(=O)[C@@H](N)Cc2ccc(Cl)cc2)CSSC[C@@H](C(=O)NC(Cc2ccc(O)cc2)C(N)=O)NC(=O)[C@H](CO)NC1=O (stereo partly drawn) [Compound 37, H-Cpa-cyclo[DCys- Tyr-D-(4- carbamoyl)Phe-Lys- Ser-Cys]-DTyr-NH2] (H-[Phe(4-Cl)][dC]Y[dPhe(4-CONH2)]KSC[ξY]-NH2; disulfide 2-7) |
| 0.0244 µM | COc1ccc(C[C@@H]2NC(=O)[C@H](NC(=O)[C@@H](N)Cc3ccc(Cl)cc3)CSSC[C@@H](C(=O)NC(Cc3ccc(O)cc3)C(N)=O)NC(=O)[C@H]([C@@H](C)O)NC(=O)[C@H](CCCCN)NC(=O)[C@@H](Cc3ccc(C(N)=O)cc3)NC2=O)cc1 (stereo partly drawn) [Compound 38, H-Cpa-cyclo[DCys- 4-OMe-Phe-D-(4- carbamoyl)Phe-Lys- Thr-Cys]-DTyr-NH2] (H-[Phe(4-Cl)][dC]Y(Me)[dPhe(4-CONH2)]KTC[ξY]-NH2; disulfide 2-7) |
| 0.0162 µM | C[C@@H](O)[C@@H]1NC(=O)[C@H](CCCCN)NC(=O)[C@@H](Cc2ccc(C(N)=O)cc2)NC(=O)[C@H](Cc2ccc(O)cc2)NC(=O)[C@H](NC(=O)[C@@H](N)Cc2ccc(Cl)cc2)CSSC[C@@H](C(=O)NC(Cc2ccccc2)C(N)=O)NC1=O (stereo partly drawn) [Compound 40, H-Cpa-cyclo[DCys- Tyr-D-(4- carbamoyl)Phe-Lys- Thr-Cys]-DPhe-NH2] (H-[Phe(4-Cl)][dC]Y[dPhe(4-CONH2)]KTC[ξF]-NH2; disulfide 2-7) |
| 0.0244 µM | C[C@@H](O)[C@@H]1NC(=O)[C@H](CCCCN)NC(=O)[C@@H](Cc2ccc(C(N)=O)cc2)NC(=O)[C@H](Cc2ccccc2)NC(=O)[C@H](NC(=O)[C@@H](N)Cc2ccc(Cl)cc2)CSSC[C@@H](C(=O)NC(Cc2ccccc2)C(N)=O)NC1=O (stereo partly drawn) [Compound 41, H-Cpa-cyclo[DCys- Phe-D-(4- carbamoyl)Phe-Lys- Thr-Cys]-DPhe-NH2] (H-[Phe(4-Cl)][dC]F[dPhe(4-CONH2)]KTC[ξF]-NH2; disulfide 2-7) |
